Columns and labels:
[1] = test system: Rattus norvegicus; experiment: In vivo antiinflammatory potency in rat air pouch model expressed as inhibition of white blood cell infiltration following oral dosage of 6.1 mg/kg ([…]); type: functional
[2] = target: Prostaglandin G/H synthase 1 (Homo sapiens, UniProt P23219); type: tissue-based, Blood
Description: In vitro inhibitory concentration against Prostaglandin G/H synthase 1 (COX-1) in human whole blood

[3] = test system: Rattus norvegicus; experiment: In vivo antiinflammatory potency in rat air pouch model expressed as inhibition of PGE-2 production following oral dosage of 6.1 mg/kg ([…]); type: functional
[4] = target: T1, Prostaglandin G/H synthase 2 (Homo sapiens, UniProt P35354)
T1 sequence (P35354 whole entry): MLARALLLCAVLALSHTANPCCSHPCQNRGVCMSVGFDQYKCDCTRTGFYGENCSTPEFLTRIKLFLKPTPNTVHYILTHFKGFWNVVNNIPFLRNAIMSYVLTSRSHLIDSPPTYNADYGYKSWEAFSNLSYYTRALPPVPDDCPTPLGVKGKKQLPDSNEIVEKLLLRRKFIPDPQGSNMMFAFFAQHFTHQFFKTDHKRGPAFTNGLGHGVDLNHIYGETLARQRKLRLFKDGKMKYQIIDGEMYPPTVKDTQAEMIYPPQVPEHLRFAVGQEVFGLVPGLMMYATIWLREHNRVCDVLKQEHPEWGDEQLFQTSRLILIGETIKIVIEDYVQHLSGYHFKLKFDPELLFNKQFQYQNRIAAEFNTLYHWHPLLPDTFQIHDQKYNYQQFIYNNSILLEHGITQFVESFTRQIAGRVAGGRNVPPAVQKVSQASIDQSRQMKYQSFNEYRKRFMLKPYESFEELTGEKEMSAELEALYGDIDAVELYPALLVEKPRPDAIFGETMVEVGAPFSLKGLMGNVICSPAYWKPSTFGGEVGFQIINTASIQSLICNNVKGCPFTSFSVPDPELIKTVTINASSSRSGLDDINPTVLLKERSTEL
Description: In vitro inhibitory concentration against Prostaglandin G/H synthase 2 (COX-2) in human whole blood

[5] = species on record: Rattus norvegicus; experiment: animal or person; conditions: po, read-out: Inhibition
Description: In vivo antiinflammatory potency in rat air pouch model expressed as inhibition of white blood cell infiltration following oral dosage of 5.4 mg/kg (15 mmol)

[6] = species on record: Rattus norvegicus; experiment: animal or person; conditions: po, read-out: Inhibition; remark: listed apart in the source
Description: In vivo antiinflammatory potency in rat air pouch model expressed as inhibition of PGE-2 production following oral dosage of 5.4 mg/kg (15 mmol)

Sequence of Prostaglandin G/H synthase 1 (P23219 whole entry): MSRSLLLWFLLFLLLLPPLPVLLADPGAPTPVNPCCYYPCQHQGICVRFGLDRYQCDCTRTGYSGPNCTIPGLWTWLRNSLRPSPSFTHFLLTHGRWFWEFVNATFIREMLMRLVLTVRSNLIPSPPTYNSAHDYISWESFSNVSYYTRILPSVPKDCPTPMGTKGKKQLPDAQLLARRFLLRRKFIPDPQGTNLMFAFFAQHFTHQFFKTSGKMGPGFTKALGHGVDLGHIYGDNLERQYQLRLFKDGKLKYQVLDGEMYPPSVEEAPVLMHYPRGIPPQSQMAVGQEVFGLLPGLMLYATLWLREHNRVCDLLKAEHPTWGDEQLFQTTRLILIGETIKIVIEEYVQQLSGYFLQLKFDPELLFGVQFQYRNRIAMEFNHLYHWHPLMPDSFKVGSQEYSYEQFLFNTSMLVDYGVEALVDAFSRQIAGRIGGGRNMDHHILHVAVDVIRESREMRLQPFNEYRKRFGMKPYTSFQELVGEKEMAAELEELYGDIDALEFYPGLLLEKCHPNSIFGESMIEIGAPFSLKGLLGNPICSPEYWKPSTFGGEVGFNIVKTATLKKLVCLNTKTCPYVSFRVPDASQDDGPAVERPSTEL

| SMILES | inhibition in vivo at 6.1 mg/kg [1] | IC50 [2] | inhibition in vivo at 6.1 mg/kg [3] | IC50 [4] | inhibition in vivo at 5.4 mg/kg [5] | inhibition in vivo at 5.4 mg/kg [6] |
| --- | --- | --- | --- | --- | --- | --- |
| CS(=O)(=O)c1ccc(-c2cc(C(F)(F)F)cnc2C(=O)c2ccccc2)cc1 | 46.2% | 14 µM | 58.9% | 0.25 µM |  |  |
| Cc1ccc(-c2ncc(Cl)cc2-c2ccc(S(C)(=O)=O)cc2)cn1 [ETORICOXIB] |  | > 200 µM |  |  | 45% | 61% |

Reference: ChEMBL document CHEMBL1144447, “3-[4-(methylsulfonyl)phenyl]-5-(trifluoromethyl)(2-pyridyl) phenyl ketone as a potent and orally active cyclooxygenase-2 selective inhibitor: synthesis and biological evaluation” (J Med Chem, 2005)
